Results as given in patent publication USRE48267E1, “Variants of C-type natriuretic peptide” (priority 2009, dated 2020).
Read-outs that look alike come from different tables or passages of the source.

Key:
wild type FVB mice = assay: dose responses of CNP variants in wild type FVB mice; conditions: mouse, in vivo
Procedure: Tail length and body weight were measured over the course of treatment. Animals were sacrificed at the end of the experiment and bone length assessed.

wild-type FVB mice = conditions: mouse, in vivo
Text: Group 1 included vehicle-treated mice injected s.c. daily for 9 weeks followed by 1 week of no treatment. Group 2 included mice treated with Pro-Gly-CNP37 (20 nmol/kg) once daily for 1 week, followed by three doses per week for 8 weeks, followed by 1 week of no treatment. Group 3 contained mice treated with Pro-Gly-CNP37 (20 nmol/kg) once daily in alternate weeks (weeks 1, 3, 5, 7 and 9), with 1 week of no treatment following each week of treatment. Group 4 contained mice treated with Pro-Gly-CNP37 (5 nmol/kg) once daily for 9 weeks followed by 1 week of no treatment. Finally, Group 5 included mice treated with Pro-Gly-CNP37 (5 nmol/kg) once daily for 5 weeks without any week of no treatment. Terminal bleed serum was collected from the mice, and cleaved collagen type II, total alkaline phosphatase and total antibody levels were measured therefrom. Cleaved collagen type II levels were measured as described above. Total alkaline phosphatase levels, predominantly from the liver and bones, were measured with the assistance of a veterinary diagnostic laboratory testing facility (Antech). […] Among the advantages of the ECLA platform, any isotype of antibody (IgG, IgM, etc.) can be detected, and the ECLA assay is species-independent. […] At the end of the 1 hour incubation, the MSD plate was washed and 150 uL of 2× read buffer (MSD Cat. No. R92TC-2) was added to the plate. […]

[1] = biological target: neutral endopeptidase (NEP) (Homo sapiens, UniProt P08473); assay: in vitro NEP cleavage assay (disappearance of non-cleaved CNP variant); conditions: human, pH 7
Method in brief: (§1)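 Recombinant human NEP (1 ug/mL final) incubated with 100 uM CNP variant in 0.1 M Tris, pH 7, at 37° C for various times, then quenched with EDTA (10 mM final) and heat. Samples reduced and analysed by HPLC and mass spectrometry. Half-life derived from loss of intact variant over time.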

Recombinant human NEP = Recombinant human NEP (Homo sapiens, UniProt P08473); assay: as above
Method in brief: as §1

[2] = IgG assay (immunogenicity) in mice; conditions: wild-type mice, 5 weeks
Procedure: An IgG assay was performed to assess whether an IgG immune response was triggered by 5 week exposure of achondroplastic FGFR3^ach mice to CNP22, CNP37 or PEO24-GANRR-CNP22(K4R) (“CNP27-PEO24”) (SEQ ID NO: 36). IgG is the most predominant immunoglobulin in mouse and human serum and is produced as part of the secondary immune response to an antigen. The IgG response to administration of the CNP peptides was determined as follows. 96-well plates were coated with 100 ng/mL CNP22, CNP37 or PEO24-GANRR-CNP22(K4R) (SEQ ID NO: 36) in BupH PBS buffer (Pierce/Thermo, Cat. No. 28372, Rockford, Ill.). After overnight incubation, plates were blocked with Casein-PBS blocking buffer (Pierce/Thermo, Cat. No. 37528) for two hours at room temperature with shaking at 300 rpm. After washing with wash buffer (1×PBS with 0.05% Tween), diluted serum samples from a terminal bleed (diluted 1:25) were added to the plate. Positive and negative controls were also loaded onto the plate. Positive control was 1:25 diluted serum (pooled from 6 individual FVB mice) with anti-CNP22 antibody added (Bachem rabbit anti-CNP22 IgG, Cat. No. T-4222) at 1:1000 dilution. Negative control was the diluted pooled serum. After two hours of incubation, the plates were washed and secondary antibody diluted in blocking buffer was added to the wells. For the mouse serum samples, anti-mouse IgG Fcγ (peroxidase-conjugated affinipure goat anti-mouse IgG, Fcγ fragment, Cat. No. 115-035-071, Jackson Immunoresearch, West Grove, Pa.) was added at a 1:10,000 dilution. For the positive and negative controls, anti-rabbit IgG-HRP (Santa Cruz Biotechnology, Cat. No. SC-2004, Santa Cruz, Calif.) was added to blocking buffer. After two hours of incubation at room temperature with shaking at 300 rpm, plates were washed with wash buffer. 100 uL of TMB (One-step TMB, Pierce/Thermo, Cat. No. 34022) was added to all wells. Plates were incubated at room temperature for 15 minutes with shaking at 300 rpm. Colorimetric reactions were stopped by the addition of 100 uL of 2 N H2SO4. Plates were read at 450 nm (Spectramax, Molecular Devices, Sunnyvale, Calif.) and data was analyzed using SoftMax Pro software (Molecular Devices).
The immunogenic response of wild-type mice administered G-CNP37, PEO12-GANRR-CNP22(K4R) (SEQ ID NO: 36) or Pro-Gly-CNP37, as measured by an increase in serum IgG level, was also assessed by examining terminal bleed serum samples as described above.

wild type mice = conditions: mouse, in vivo

Sequence of Recombinant human NEP (P08473 whole entry): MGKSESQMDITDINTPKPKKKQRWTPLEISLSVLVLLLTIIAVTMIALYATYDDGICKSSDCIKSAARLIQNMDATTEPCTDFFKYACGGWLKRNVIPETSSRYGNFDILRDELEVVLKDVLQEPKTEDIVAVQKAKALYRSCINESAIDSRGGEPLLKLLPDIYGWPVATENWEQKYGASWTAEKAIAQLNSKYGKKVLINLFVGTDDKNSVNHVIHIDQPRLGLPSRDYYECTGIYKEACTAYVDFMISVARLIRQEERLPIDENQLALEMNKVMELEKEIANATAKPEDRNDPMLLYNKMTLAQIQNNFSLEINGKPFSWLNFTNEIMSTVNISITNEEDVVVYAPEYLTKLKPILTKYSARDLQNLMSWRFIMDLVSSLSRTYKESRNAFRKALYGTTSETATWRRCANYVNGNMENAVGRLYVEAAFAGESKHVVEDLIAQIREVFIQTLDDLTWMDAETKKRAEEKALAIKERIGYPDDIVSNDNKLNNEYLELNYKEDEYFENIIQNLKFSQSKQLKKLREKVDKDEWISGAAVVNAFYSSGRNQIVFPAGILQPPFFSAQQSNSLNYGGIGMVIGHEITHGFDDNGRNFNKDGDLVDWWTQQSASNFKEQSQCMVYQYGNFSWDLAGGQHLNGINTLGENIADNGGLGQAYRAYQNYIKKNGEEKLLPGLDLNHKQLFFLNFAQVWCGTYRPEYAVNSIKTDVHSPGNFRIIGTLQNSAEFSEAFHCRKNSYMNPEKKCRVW
Sequence of neutral endopeptidase (NEP) (P08473 whole entry): as above

anti-CNP antibodies (IgG antibody response) (wild type mice) | resistance to NEP cleavage (in words) (Recombinant human NEP) | Structure (SMILES) | organ weight compared with vehicle treated animals (wild type FVB mice) | antibody response in the total antibody assay (wild-type FVB mice) | half-life at 100 uM [1] | resistance to NEP cleavage (in words) (Recombinant human NEP; in vitro NEP assay, assay period 160 minutes) | IgG immune response [2]
– | – | CC[C@H](C)[C@@H]1NC(=O)[C@H](CCCNC(=N)N)NC(=O)[C@H](CC(=O)O)NC(=O)[C@H](CC(C)C)NC(=O)[C@H](CCCCN)NC(=O)[C@H](CC(C)C)NC(=O)CNC(=O)[C@H](Cc2ccccc2)NC(=O)[C@@H](NC(=O)CNC(=O)[C@H](CCCCN)NC(=O)[C@H](CO)NC(=O)[C@H](CC(C)C)NC(=O)CNC(=O)[C@H](CCCCN)NC(=O)[C@H](CCCCN)NC(=O)[C@H](CC(N)=O)NC(=O)[C@H](C)NC(=O)CNC(=O)[C@H](CCCCN)NC(=O)[C@H](Cc2ccc(O)cc2)NC(=O)[C@H](CCCCN)NC(=O)[C@H](CCCNC(=N)N)NC(=O)[C@H](C)NC(=O)[C@H](CC(N)=O)NC(=O)[C@@H]2CCCN2C(=O)[C@H](Cc2c[nH]cn2)NC(=O)[C@H](CCC(=O)O)NC(=O)[C@H](CCC(N)=O)NC(=O)CNC(=O)[C@@H]2CCCN2)CSSC[C@@H](C(=O)O)NC(=O)CNC(=O)[C@H](CC(C)C)NC(=O)CNC(=O)[C@H](CO)NC(=O)[C@H](CCSC)NC(=O)[C@H](CO)NC(=O)CNC1=O [Pro-Gly-CNP37] | no significant changes | did not show a positive antibody response | > 160 min | most resistant to NEP degradation | None of the wild-type mice
elicited and IgG antibody response | most resistant to NEP degradation | CC[C@H](C)[C@@H]1NC(=O)[C@H](CCCNC(=N)N)NC(=O)[C@H](CC(=O)O)NC(=O)[C@H](CC(C)C)NC(=O)[C@H](CCCCN)NC(=O)[C@H](CC(C)C)NC(=O)CNC(=O)[C@H](Cc2ccccc2)NC(=O)[C@@H](NC(=O)CNC(=O)[C@H](CCCCN)NC(=O)[C@H](CO)NC(=O)[C@H](CC(C)C)NC(=O)CNC(=O)[C@H](CCCCN)NC(=O)[C@H](CCCCN)NC(=O)[C@H](CC(N)=O)NC(=O)[C@H](C)NC(=O)CNC(=O)[C@H](CCCCN)NC(=O)[C@H](Cc2ccccc2)NC(=O)[C@H](CCCNC(=N)N)NC(=O)[C@H](Cc2c[nH]cn2)NC(=O)[C@H](C)NC(=O)[C@@H](NC(=O)[C@H](CCC(=O)O)NC(=O)[C@H](CO)NC(=O)[C@H](CCCCN)NC(=O)[C@H](Cc2c[nH]cn2)NC(=O)CN)C(C)C)CSSC[C@@H](C(=O)O)NC(=O)CNC(=O)[C@H](CC(C)C)NC(=O)CNC(=O)[C@H](CO)NC(=O)[C@H](CCSC)NC(=O)[C@H](CO)NC(=O)CNC1=O [HSA-CNP27] | – | – | > 160 min | – | –
